The conditions of data set [1]: animal models, after oral ingestion; cited from earlier work.
A further data set has as its system human subjects. The data set can be described thus: Drug-assisted psychotherapy in individuals for whom MDMA therapy is ineffective. It counts as in vivo. An excerpt: Inter alia, 5-MAPB or 6-APB-assisted psychotherapy is effective in post-traumatic stress disorder (PTSD) therapy, couple's therapy, and therapy for anxiety disorders.

Data on 2 molecules can be found in US20240423950A1, “5-MAPB OR 6-APB FOR USE IN DRUG-ASSISTED PSYCHOTHERAPY” (CLEARMIND MEDICINE INC., priority 2021, published 2024).

As for `CC(N)Cc1ccc2ccoc2c1` (stereo not shown) [6-APB, 1-Benzofuran-6-yl propan-2-amine], the apparent plasma half-life result in data set [1] is on record as “approximately 1 hour”. For the same molecule, the “therapeutic efficacy in the psychotherapeutic context” value in the data set on human subjects is “significant enhancement of therapeutic efficacy”.
As for `CNC(C)Cc1ccc2occc2c1` (stereo not shown) [5-MAPB, 1-(Benzofuran-5-yl)-N-methylpropan-2-amine], the apparent plasma half-life result in data set [1] is recorded as “approximately 1 hour”. Moreover, the “therapeutic efficacy in the psychotherapeutic context” value in the data set with human subjects is recorded as “significant enhancement of therapeutic efficacy”.
